This is an account of results in patent US20230139171A1 (SITA Information Networking Computing UK Limited, priority 2019, published 2023).

Common to all, as to type: cell-based
In one assay the target is T1, human TLR9 (Homo sapiens, UniProt Q9NR96).
T1 construct: host or cells: HEK-Blue cells
T1 sequence (Q9NR96 26-1032): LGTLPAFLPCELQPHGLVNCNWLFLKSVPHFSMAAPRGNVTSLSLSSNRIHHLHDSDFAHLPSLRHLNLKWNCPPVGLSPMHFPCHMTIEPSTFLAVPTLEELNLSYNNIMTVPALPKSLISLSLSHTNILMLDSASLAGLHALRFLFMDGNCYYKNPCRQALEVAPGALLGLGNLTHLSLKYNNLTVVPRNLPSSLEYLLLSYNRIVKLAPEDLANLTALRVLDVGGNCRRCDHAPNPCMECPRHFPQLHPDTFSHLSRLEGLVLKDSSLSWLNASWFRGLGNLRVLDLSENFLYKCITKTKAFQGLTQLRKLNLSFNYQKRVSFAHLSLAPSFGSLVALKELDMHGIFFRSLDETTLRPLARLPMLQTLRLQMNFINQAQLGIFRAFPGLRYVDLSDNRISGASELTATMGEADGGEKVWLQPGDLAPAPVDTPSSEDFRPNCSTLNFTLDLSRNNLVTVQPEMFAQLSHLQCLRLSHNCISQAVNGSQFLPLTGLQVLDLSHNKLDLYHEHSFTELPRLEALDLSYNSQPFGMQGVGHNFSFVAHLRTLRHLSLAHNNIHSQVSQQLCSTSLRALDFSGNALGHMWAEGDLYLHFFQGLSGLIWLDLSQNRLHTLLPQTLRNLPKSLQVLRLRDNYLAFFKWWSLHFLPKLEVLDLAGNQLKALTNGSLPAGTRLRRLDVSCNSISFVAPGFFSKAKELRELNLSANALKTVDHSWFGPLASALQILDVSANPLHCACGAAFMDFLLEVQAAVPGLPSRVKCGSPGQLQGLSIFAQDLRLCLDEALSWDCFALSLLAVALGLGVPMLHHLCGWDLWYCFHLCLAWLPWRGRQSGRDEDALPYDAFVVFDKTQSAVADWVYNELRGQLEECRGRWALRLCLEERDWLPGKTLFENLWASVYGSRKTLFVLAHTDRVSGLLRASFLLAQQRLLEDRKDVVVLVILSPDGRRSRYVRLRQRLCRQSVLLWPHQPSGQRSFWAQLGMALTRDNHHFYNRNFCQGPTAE
Put plainly: TLR9 inhibition reporter assay (HEK-Blue cells, SEAP reporter, ODN2006 stimulation). Conditions: HEK-Blue cells overexpressing human TLR9, SEAP reporter, ODN2006 5 nM. Put shortly: (§1)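 Compound treatment: 30 min, RT, 0.05 nM–50 μM final. Agonist: TLR7 gardiquimod 7.5 μM; TLR8 R848 15.9 μM; TLR9 ODN2006 5 nM. Incubation 22 h, 37 °C, 5% CO2. Readout SEAP, HEK-Blue Detection.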
For orientation: A reporter such as luciferase makes a cellular process visible.

For a further assay, the target named is T2, human TLR8 (Homo sapiens, UniProt Q9NR97).
T2 construct: host or cells: HEK-Blue cells
T2 sequence (Q9NR97 27-1041): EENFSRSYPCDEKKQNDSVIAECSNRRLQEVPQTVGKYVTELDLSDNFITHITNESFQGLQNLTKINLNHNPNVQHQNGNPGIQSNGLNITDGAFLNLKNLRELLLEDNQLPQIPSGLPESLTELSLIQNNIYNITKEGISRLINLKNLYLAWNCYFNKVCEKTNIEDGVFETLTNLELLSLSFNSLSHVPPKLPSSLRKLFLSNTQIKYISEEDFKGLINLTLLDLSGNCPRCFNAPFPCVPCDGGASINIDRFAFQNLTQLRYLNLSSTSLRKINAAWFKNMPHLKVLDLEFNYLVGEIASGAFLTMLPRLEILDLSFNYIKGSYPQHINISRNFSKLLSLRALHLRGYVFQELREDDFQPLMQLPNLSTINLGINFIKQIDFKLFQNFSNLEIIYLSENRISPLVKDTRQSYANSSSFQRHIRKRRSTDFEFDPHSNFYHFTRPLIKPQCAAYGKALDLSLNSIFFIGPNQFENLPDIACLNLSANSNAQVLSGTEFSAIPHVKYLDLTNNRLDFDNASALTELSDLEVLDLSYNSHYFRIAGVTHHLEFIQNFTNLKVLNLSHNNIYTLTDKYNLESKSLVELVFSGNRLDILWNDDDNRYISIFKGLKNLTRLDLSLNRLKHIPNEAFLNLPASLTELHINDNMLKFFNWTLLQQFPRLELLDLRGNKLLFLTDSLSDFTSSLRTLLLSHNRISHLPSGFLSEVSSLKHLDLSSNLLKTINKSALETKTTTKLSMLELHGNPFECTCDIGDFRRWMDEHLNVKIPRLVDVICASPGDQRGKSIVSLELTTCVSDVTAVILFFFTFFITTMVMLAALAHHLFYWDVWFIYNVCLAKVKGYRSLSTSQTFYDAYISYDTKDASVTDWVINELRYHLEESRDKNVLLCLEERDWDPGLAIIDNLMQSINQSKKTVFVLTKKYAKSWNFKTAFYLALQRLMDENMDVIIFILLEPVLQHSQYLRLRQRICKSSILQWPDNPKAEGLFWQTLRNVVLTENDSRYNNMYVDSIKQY
Put plainly: TLR8 inhibition reporter assay (HEK-Blue cells, SEAP reporter, R848 stimulation). Conditions: HEK-Blue cells overexpressing human TLR8, SEAP reporter, R848 15.9 μM; read-out: TLR8 IC50. Put shortly:
as §1

Another assay deals with T3, human TLR7 (Homo sapiens, UniProt Q9NYK1).
T3 construct: host or cells: HEK-Blue cells
T3 sequence (Q9NYK1 27-1049): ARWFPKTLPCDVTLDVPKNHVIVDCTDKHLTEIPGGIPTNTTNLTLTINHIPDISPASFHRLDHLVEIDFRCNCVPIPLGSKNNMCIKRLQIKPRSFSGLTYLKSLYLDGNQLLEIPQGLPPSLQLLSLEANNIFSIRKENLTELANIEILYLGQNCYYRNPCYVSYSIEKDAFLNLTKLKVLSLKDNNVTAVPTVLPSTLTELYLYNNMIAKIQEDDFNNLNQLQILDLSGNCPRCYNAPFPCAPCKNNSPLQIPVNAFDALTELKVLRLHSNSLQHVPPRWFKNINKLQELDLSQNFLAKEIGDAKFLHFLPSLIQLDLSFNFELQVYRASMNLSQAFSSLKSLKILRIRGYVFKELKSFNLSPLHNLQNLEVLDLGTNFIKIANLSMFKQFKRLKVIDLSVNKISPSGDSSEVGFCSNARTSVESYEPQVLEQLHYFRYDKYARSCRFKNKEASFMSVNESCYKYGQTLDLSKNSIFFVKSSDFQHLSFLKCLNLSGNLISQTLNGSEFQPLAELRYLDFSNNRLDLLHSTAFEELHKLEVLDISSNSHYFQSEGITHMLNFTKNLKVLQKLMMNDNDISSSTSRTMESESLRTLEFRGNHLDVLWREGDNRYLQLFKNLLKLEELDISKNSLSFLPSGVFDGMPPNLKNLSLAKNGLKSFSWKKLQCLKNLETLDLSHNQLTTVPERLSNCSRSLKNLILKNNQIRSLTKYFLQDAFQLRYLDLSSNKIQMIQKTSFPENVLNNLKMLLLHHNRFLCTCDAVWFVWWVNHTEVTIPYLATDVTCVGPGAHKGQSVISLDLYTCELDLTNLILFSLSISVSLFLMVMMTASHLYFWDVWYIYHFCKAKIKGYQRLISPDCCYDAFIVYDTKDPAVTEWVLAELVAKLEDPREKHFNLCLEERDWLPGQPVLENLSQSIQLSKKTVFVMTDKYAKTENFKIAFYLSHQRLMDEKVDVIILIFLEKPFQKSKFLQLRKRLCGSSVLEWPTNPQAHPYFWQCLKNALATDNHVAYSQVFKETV
In words: TLR7 inhibition reporter assay (HEK-Blue cells, SEAP reporter, gardiquimod stimulation). The following applies: HEK-Blue cells overexpressing human TLR7, SEAP reporter, gardiquimod 7.5 μM; read-out: TLR7 IC50. Put shortly: as §1

What is called IC50 is the midpoint of a concentration-inhibition curve. On to `Cc1c(-c2[nH]c3sc(C4CCC(N5CCNC(=O)C5)CC4)nc3c2C(C)C)cn(C)c(=O)c1C` (single isomer, unassigned) [Example 259, 4-(4-(6-isopropyl-5-(1,4,5-trimethyl-6-oxo-1,6-dihydropyridin-3-yl)-4H-pyrrolo[3,2-d]thiazol-2-yl)cyclohexyl)piperazin-2-one], for which the results for the IC50 on human TLR9, at human TLR8 and on human TLR7 were over 50 µM, 0.0138 µM and 0.0235 µM, respectively.

Consider `Cc1c(-c2[nH]c3sc(C4CCC(N5CCNC(=O)C5)CC4)nc3c2C(C)C)cn(C)c(=O)c1C` (single isomer, unassigned) [Example 260, 4-(4-(6-isopropyl-5-(1,4,5-trimethyl-6-oxo-1,6-dihydropyridin-3-yl)-4H-pyrrolo[3,2-d]thiazol-2-yl)cyclohexyl)piperazin-2-one], for which the half-maximal inhibitory concentration (IC50) on human TLR9 is over 50 µM; at human TLR8, 0.138 µM; on human TLR7, 0.17 µM.

Take `Cc1c(-c2[nH]c3sc(C4CCC(N(C)C(C)C)CC4)nc3c2C(C)C)cn(C)c(=O)c1C` (single isomer, unassigned) [Example 261, 5-(6-isopropyl-2-(4-(isopropyl(methyl)amino)cyclohexyl)-4H-pyrrolo[3,2-d]thiazol-5-yl)-1,3,4-trimethylpyridin-2(1H)-one]: the values for the half-maximal inhibitory concentration (IC50) at human TLR9, at human TLR8 and at human TLR7 were 17.1 µM, 0.00226 µM and 0.00843 µM, respectively.

On to `Cc1c(-c2[nH]c3sc(C4CCC(N(C)C(C)C)CC4)nc3c2C(C)C)cn(C)c(=O)c1C` (single isomer, unassigned) [Example 262, 5-(6-isopropyl-2-(4-(isopropyl(methyl)amino)cyclohexyl)-4H-pyrrolo[3,2-d]thiazol-5-yl)-1,3,4-trimethylpyridin-2(1H)-one], for which the IC50 on human TLR9 amounted to 18.3 µM; on human TLR8, 0.0175 µM; on human TLR7, 0.0238 µM.

Consider `Cc1c(-c2[nH]c3sc(C4CCC(N5CC(O)C5)CC4)nc3c2C(C)C)cn(C)c(=O)c1C` (single isomer, unassigned) [Example 263, 5-(2-(4-(3-hydroxyazetidin-1-yl)cyclohexyl)-6-isopropyl-4H-pyrrolo[3,2-d]thiazol-5-yl)-1,3,4-trimethylpyridin-2(1H)-one], for which the half-inhibitory concentration (IC50) against human TLR9 is 18.1 µM; on human TLR8, 0.00448 µM; at human TLR7, 0.00474 µM.

As to `Cc1c(-c2[nH]c3sc(C4CCC(N5CC(O)C5)CC4)nc3c2C(C)C)cn(C)c(=O)c1C` (single isomer, unassigned) [Example 264, 5-(2-(4-(3-hydroxyazetidin-1-yl)cyclohexyl)-6-isopropyl-4H-pyrrolo[3,2-d]thiazol-5-yl)-1,3,4-trimethylpyridin-2(1H)-one], the IC50 at human TLR9 is 22 µM; at human TLR8, 0.0229 µM; at human TLR7, 0.0268 µM.

Turning to `Cc1c(-c2[nH]c3sc(C4CCC(N5CC(F)C5)CC4)nc3c2C(C)C)cn(C)c(=O)c1C` (single isomer, unassigned) [Example 265, 5-(2-(4-(3-fluoroazetidin-1-yl)cyclohexyl)-6-isopropyl-4H-pyrrolo[3,2-d]thiazol-5-yl)-1,3,4-trimethylpyridin-2(1H)-one], the half-inhibitory concentration (IC50) amounted to 47.7 µM against human TLR9, 0.00329 µM at human TLR8 and 0.014 µM on human TLR7.

In the case of `Cc1c(-c2[nH]c3sc(C4CCC(N5CC(F)C5)CC4)nc3c2C(C)C)cn(C)c(=O)c1C` (single isomer, unassigned) [Example 266, 5-(2-(4-(3-fluoroazetidin-1-yl)cyclohexyl)-6-isopropyl-4H-pyrrolo[3,2-d]thiazol-5-yl)-1,3,4-trimethylpyridin-2(1H)-one], the IC50 is over 50 µM against human TLR9, 0.0602 µM at human TLR8 and 0.119 µM at human TLR7.

Turning to `Cc1c(-c2[nH]c3sc(C4CCC(N5CC(O)(C(F)(F)F)C5)CC4)nc3c2C(C)C)cn(C)c(=O)c1C` (single isomer, unassigned) [Example 267, 5-(2-(4-(3-hydroxy-3-(trifluoromethyl)azetidin-1-yl)cyclohexyl)-6-isopropyl-4H-pyrrolo[3,2-d]thiazol-5-yl)-1,3,4-trimethylpyridin-2(1H)-one], the IC50 against human TLR9 was over 50 µM; on human TLR8, 0.00716 µM; on human TLR7, 0.0243 µM.

For the molecule `Cc1c(-c2[nH]c3sc(C4CCC(N5CC(O)(C(F)(F)F)C5)CC4)nc3c2C(C)C)cn(C)c(=O)c1C` (single isomer, unassigned) [Example 268, 5-(2-(4-(3-hydroxy-3-(trifluoromethyl)azetidin-1-yl)cyclohexyl)-6-isopropyl-4H-pyrrolo[3,2-d]thiazol-5-yl)-1,3,4-trimethylpyridin-2(1H)-one], the IC50 against human TLR9 is over 50 µM; on human TLR8 it was 0.0651 µM; at human TLR7, 0.0411 µM.
